Columns and labels:
human P2X2/3 receptor = biological target: T1, human P2X2/3 receptor (Homo sapiens, UniProt P56373+Q9UBL9); assay: P2X2/3 FLIPR (Fluorometric Imaging Plate Reader) assay; format: cell-based; conditions: CHO-K1 cells transfected with human P2X2/3; agonist α,β-meATP 5 μM; Fluo-3 calcium fluorescence
T1 construct: expressed in transfected cells; host or cells: CHO-K1
T1 sequence (Q9UBL9 1-471): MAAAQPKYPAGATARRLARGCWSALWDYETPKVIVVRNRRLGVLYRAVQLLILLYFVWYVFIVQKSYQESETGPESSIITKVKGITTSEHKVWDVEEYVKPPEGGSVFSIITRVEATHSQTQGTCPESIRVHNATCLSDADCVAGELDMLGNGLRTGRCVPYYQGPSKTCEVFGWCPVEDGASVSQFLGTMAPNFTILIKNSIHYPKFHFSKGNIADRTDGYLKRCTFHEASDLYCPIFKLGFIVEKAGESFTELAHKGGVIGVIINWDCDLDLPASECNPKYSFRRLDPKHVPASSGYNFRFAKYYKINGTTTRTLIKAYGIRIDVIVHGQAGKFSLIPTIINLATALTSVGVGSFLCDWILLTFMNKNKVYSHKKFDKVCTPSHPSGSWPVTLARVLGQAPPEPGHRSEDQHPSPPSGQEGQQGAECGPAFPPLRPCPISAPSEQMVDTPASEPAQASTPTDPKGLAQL
T1 sequence (P56373 1-397): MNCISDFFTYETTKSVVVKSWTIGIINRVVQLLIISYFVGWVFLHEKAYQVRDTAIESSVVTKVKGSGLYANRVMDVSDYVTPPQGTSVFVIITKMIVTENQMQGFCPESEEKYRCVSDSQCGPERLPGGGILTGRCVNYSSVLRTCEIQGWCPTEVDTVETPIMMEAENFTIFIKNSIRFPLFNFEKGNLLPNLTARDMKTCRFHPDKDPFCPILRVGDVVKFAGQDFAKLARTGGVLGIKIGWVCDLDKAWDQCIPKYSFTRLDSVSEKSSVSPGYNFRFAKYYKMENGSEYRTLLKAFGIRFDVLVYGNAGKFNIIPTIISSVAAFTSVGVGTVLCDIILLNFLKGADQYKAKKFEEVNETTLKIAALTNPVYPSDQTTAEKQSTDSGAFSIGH
Method: (§1) CHO-K1 cells were transfected with cloned rat P2X3 or human P2X2/3 receptor subunits and passaged in flasks. 18-24 hours before the FLIPR experiment, cells were released from their flasks, centrifuged, and resuspended in nutrient medium at 2.5×10^5 cells/ml. The cells were aliquoted into black-walled 96-well plates at a density of 50,000 cells/well and incubated overnight in 5% CO2 at 37° C. On the day of the experiment, cells were washed in FLIPR buffer (calcium- and magnesium-free Hank's balanced salt solution, 10 mM HEPES, 2 mM CaCl2, 2.5 mM probenecid; FB). Each well received 100 μl FB and 100 μl of the fluorescent dye Fluo-3 AM [2 μM final conc.]. […]
(§2) Test compounds (dissolved in DMSO at 10 mM and serially diluted with FB) or vehicle were added to each well (25 μl of a 4× solution) and allowed to equilibrate for 20 minutes at room temperature. The plates were then placed in the FLIPR and a baseline fluorescence measurement (excitation at 488 nm and emission at 510-570 nm) was obtained for 10 seconds before a 100 μl/well agonist or vehicle addition. […] Fluorescence was measured for an additional 2 minutes at 1 second intervals after agonist addition. A final addition of ionomycin (5 μM, final concentration) was made to each well of the FLIPR test plate to establish cell viability and maximum fluorescence of dye-bound cytosolic calcium. […]

rat P2X3 receptor = biological target: T2, rat P2X3 receptor (Rattus norvegicus, UniProt P49654); assay: P2X3 FLIPR (Fluorometric Imaging Plate Reader) assay; format: cell-based; conditions: CHO-K1 cells transfected with rat P2X3; agonist α,β-meATP 1 μM; Fluo-3 calcium fluorescence
T2 construct: expressed in transfected cells; host or cells: CHO-K1
T2 sequence (P49654 1-397): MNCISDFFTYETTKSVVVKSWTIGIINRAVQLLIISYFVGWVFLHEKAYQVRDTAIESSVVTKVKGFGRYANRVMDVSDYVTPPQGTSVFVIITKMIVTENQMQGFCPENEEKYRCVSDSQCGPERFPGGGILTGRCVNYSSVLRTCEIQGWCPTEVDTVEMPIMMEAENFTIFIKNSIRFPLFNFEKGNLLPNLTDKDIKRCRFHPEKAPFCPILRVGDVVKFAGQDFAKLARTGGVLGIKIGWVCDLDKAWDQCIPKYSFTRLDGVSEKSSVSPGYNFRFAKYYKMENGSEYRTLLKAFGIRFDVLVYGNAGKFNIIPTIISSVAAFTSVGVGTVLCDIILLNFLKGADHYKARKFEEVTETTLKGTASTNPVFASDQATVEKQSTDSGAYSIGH
Method: as §1, §2

Row | SMILES | IC50 (human P2X2/3 receptor) [nM] | IC50 (rat P2X3 receptor) [nM]
1 | Cc1ccc(-n2cc(-c3ccccc3)c3c(N[C@H](C)CO)ncnc32)cc1Cl [Compound 12, (R)-2-[7-(3-Chloro-4-methyl-phenyl)-5-phenyl-7H-pyrrolo[2,3-d]pyrimidin-4-ylamino]-propan-1-ol] | ~501 | –
2 | Cc1cccc(-n2cc(-c3ccc(F)cc3)c3c(NC4CCOCC4)ncnc32)c1 [Compound 11, [5-(4-Fluoro-phenyl)-7-m-tolyl-7H-pyrrolo[2,3-d]pyrimidin-4-yl]-(tetrahydro-pyran-4-yl)-amine] | – | ~309
